Where “and” joins values, the source holds several entries; their conditions need not be identical. Equal entries are not always repeated. Calls of active or inactive are those of the source.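 Rule for the calls: active = compounds giving half or more protection of infected cells from virus-caused growth loss, again on retest; inactive = the rest.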

This assay deals with CEM cells HIV-1 protection, formazan growth assay. Nature of the assay: NCI AIDS Antiviral Assay. The following applies: for IC50: measured here: growth of uninfected CEM cells. In outline:
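Five concentrations of each compound were applied to infected and uninfected human CEM cells. Protection from HIV-1 was judged from growth measured with a soluble formazan assay.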

Take `COc1ccc(=O)n(C)n1`: the EC50 – broadly, the concentration needed to bring the measured effect to its halfway point – is > 1780 µM and the IC50 (commonly the concentration that gives 50% inhibition) worked out at 1450 µM.
`O=C1O[C@H]2C3C4CCC(C4[C@@H]2I)[C@H]13` (some centres undefined): the EC50 was > 200 µM and the IC50 was > 200 µM.
For the molecule `COc1ccc2c3c1OC1CC(O)C=CC31CCN(C)C2` (centres undefined), the EC50 was > 200 µM and the IC50 is > 200 µM.
As for `O=C(NNC1=NCCN1)c1ccco1`, the EC50 was > 200 µM and the 50% inhibitory concentration (IC50) was > 200 µM.
In the case of `ClC1CCC2OOC1O2` (centres undefined), the outcome was inactive.
On the same count and under the same terms, the same measure for `Cc1nc2c(nc1C)C(=O)C(Br)=C(N)C2=O`: “inactive”.
For the molecule `CCCc1cc(=O)oc2c3c(c4c(c12)OC(C)(C)C=C4)O[C@H](C)[C@@H](C)[C@@H]3OC(=O)CCl`, the EC50 was 4.57 µM and the IC50 amounted to 15.8 µM.
As for `O=S(CC1(O)CCCCC1)c1ccccc1` (centres undefined), the result was inactive.
As to `C=C1CC[N+]2(CCCCCC)CCCC12` (centres undefined), the EC50 is > 871 µM and the IC50 came to 126 µM.
For the molecule `C[N+](C)(C)CCCS(=O)(=O)[O-]`, the EC50 is > 200 µM and the IC50 is > 200 µM.
For the molecule `C[n+]1c2ccccc2cc2c(CNC(CCCN=C(N)N)C(=O)O)cccc21` (centres undefined), the result was inactive.
`N.N.N.N.O=N[O-].O=N[O-].[Cl-].[Co+3]`: the outcome was inactive.
On to `O=C1Cc2c([nH]c3ccc(Br)cc23)-c2ccccc2N1`, for which the EC50 was > 200 µM and the IC50 is 2.95 µM.
The matching figures for `O=c1cc(N=Nc2ccc(Cl)c(Cl)c2)[nH]c(=O)[nH]1`: > 2 µM and 1.55 µM.
Consider `CCOC(=O)c1cnn2c1ncc1c(=O)n(NC(N)=O)ccc12`, for which the EC50 was > 200 µM and the IC50 was > 200 µM.
For the molecule `CC1(C)CC(=O)CC(C)(C)ON1`, the result was inactive.
Take `CC(C)=C1CC(C)(C)N=C1CCC1=NC(C)(C)CC1=C(C)C`: the EC50 is > 50.1 µM and the IC50 came to 28.2 µM.
As to `O=S1(=O)C2C=CCC1C(O)CC2` (centres undefined), the EC50 is > 933 µM and the IC50 is > 933 µM.
As for `CCSCCCCCCCCCCCC(=O)O`, the EC50 was 9.33 µM and the IC50 is 32.4 µM.
Take `N=c1oc2ccccc2cc1-c1nc2ccccc2c(=O)[nH]1`: the outcome was inactive.
As for `CC(C)c1oc2ccccc2c1C(=O)c1ccc(O)cc1`, the EC50 was > 148 µM and the IC50 was 13.2 µM.
The matching figures for `C=C(C)C(=O)NC(N)=NC#N`: > 1620 µM and 28.8 µM.
On to `O=C(c1cccs1)N(C(=S)N1CCN(c2ccccn2)CC1)c1ccccc1`, for which the EC50 is > 17.8 µM and the IC50 is > 17.8 µM.
Consider `CC(C)CC(=O)CC(C)[C@]1(CCCOCc2ccccc2)C(=O)N2CCC3(C[C@@]24CCC[C@H]41)OCCO3` (some centres undefined), for which the EC50 was > 200 µM and the IC50 turned out to be 35.5 µM.
The matching figures for `CCOC(=O)Nc1cc2c(c(N)n1)N=C(c1ccc(Cl)cc1Cl)CN2`: > 10 µM and 0.017 µM.
The matching figures for `O=[N+]([O-])c1cnc(N(CCO)CCO)s1`: > 200 µM and > 200 µM.
On to `Cc1c(C)c2c(c(N)c1C#N)C(=O)N(Cc1ccc(S(N)(=O)=O)cc1)C2=O`, for which the EC50 was 69.2 µM and the IC50 was > 200 µM.
On to `NC(=S)N/N=C1/CCCC2CCCC[C@@H]12` (some centres undefined), for which the EC50 was > 200 µM and the IC50 was > 200 µM.
In the case of `CNC(=O)Nc1ccc(Cl)cn1`, the EC50 was > 200 µM and the IC50 is > 200 µM.
On to `CCC[CH2][Sn]([CH2]CCC)([O]c1cccc2cccnc12)[O]c1cccc2cccnc12`, for which the outcome was inactive.
With `CN(C)CCCN1C(=O)C2CCC(C)(C1=O)C2(C)C` (centres undefined), the EC50 is > 832 µM and the IC50 amounted to 12.9 µM.
The matching figures for `CC1(C)C2CCC(O)(C2)C1N` (centres undefined): > 200 µM and > 200 µM.
As for `CC(C)(C)N1C(=O)N=[N+](/C(=C(\c2ccccc2)n2nc([O-])n(C(C)(C)C)c2=O)c2ccccc2)C1=O`, the EC50 was > 100 µM and the IC50 was > 100 µM.
For `CCCCCCCCCCCCS(=O)(=O)O` (tested in a mixture with another compound), the EC50 is > 200 µM and the IC50 was 107 µM.
Regarding `OCC(S)CS` (centres undefined), the EC50 was > 151 µM and the IC50 is 72.4 µM.
For the molecule `COC(=O)CNCC1OC2OC(C)(C)OC2C1N=[N+]=[N-]` (centres undefined), the EC50 is > 200 µM and the IC50 is > 200 µM.
Regarding `CC(=O)Nc1ccc(S(=O)(=O)NCCSSCCNS(=O)(=O)c2ccc(NC(C)=O)cc2)cc1`, the EC50 is > 200 µM and the IC50 is > 200 µM.
With `O=C(CCC(=O)Nc1ccccc1C(F)(F)F)N/N=C1\C(=N\NC(=O)CCC(=O)Nc2ccccc2C(F)(F)F)C(c2ccc3c(c2)OCO3)Oc2ccccc21` (centres undefined), the EC50 was > 23.4 µM and the IC50 was > 23.4 µM.
On to `O=c1c2cc([N+](=O)[O-])ccc2n(Cc2ccccc2)n1Cc1ccccc1`, for which the EC50 was > 200 µM and the IC50 worked out at 13.2 µM.
Take `COc1cc(Cc2cnc(N)nc2N)cc(OC)c1OCCCNc1ccc([N+](=O)[O-])cc1`: the result was inactive.
For the molecule `Cc1c([N+](=O)[O-])oc2c1C(=O)N([N+](=O)[O-])CCC2`, the EC50 is > 89.1 µM and the IC50 is > 89.1 µM.
As for `Cc1ccc(S(=O)(=O)N/N=C2/CC3CCC2C3)cc1` (centres undefined), the EC50 is > 200 µM and the IC50 is > 200 µM.
As to `COc1ccc(/C(Cl)=C(\C=N/O)c2ccc(OC)c(OC)c2)cc1OC`, the EC50 is > 13.8 µM and the IC50 is > 13.8 µM.
`O=S(=O)(c1ccccc1)c1cccc2c1NCCC2`: the EC50 is 21.9 µM and the IC50 came to 95.5 µM.
With `NCc1ccc(-c2ccc(-c3ccc(-c4ccc(CN)s4)s3)s2)s1`, the EC50 is > 100 µM and the IC50 is 72.4 µM.
The corresponding values for `NNC(=S)N/N=C(\CC1OC(=O)c2ccccc21)c1ccccc1O` (centres undefined) are > 363 µM and 209 µM.
On to `NC(=S)Nc1[nH]c(=S)nc2c1c(-c1ccccc1)cn2C(=O)c1ccccc1`, for which the EC50 is > 25.1 µM and the IC50 was > 25.1 µM.
As to `Cc1ccc2c(c1)[nH]c(=S)n2C=C(C(N)=O)C(N)=O`, the EC50 was > 200 µM and the IC50 is > 200 µM.
As to `COc1ccccc1NC(=O)C(C#N)=C(SC)SC`, the EC50 is > 200 µM and the IC50 came out at 8.91 µM.
For `O=P(O)(O)c1ccc2c(c1)OCCOCCOCCOCCO2`, the EC50 was > 200 µM and the IC50 was > 200 µM.
`COc1ccc(C2CC(=O)CC(c3ccc(OC)cc3)C23C(=O)NC(=S)NC3=O)cc1` (centres undefined): the EC50 is > 100 µM and the IC50 was > 100 µM.
Turning to `O=S(=O)(c1ccccc1)N1C2CCCC21` (centres undefined), the outcome was inactive.
For the molecule `OCCNCN(CNCCO)c1nc(N(CNCCO)CNCCO)nc(N(CNCCO)CNCCO)n1`, the EC50 is > 200 µM and the IC50 amounted to 11.2 µM.
`O=c1cc(O)nc(CO)[nH]1`: the EC50 is > 200 µM and the IC50 was > 200 µM.
`Nc1nc(Br)nc2ncn(C3CC(O)C(CO)O3)c12` (centres undefined): the EC50 is > 200 µM and the IC50 worked out at 7.41 µM.
Consider `Clc1nc(Nc2nc3ccccc3[nH]2)nc(Cl)c1-c1ccccc1`, for which the outcome was inactive.
In the case of `COC[C@@H](N=CN1CCc2cc(OC)c(OC)cc2C1)C(C)(C)C`, the EC50 was > 741 µM and the IC50 was > 741 µM.
For `O=[N+]([O-])c1cc(C2ON=C(c3ccccc3)N2C23CC4CC(CC(C4)C2)C3)ccc1Cl` (centres undefined), the EC50 is > 200 µM and the IC50 was 81.3 µM.
Consider `COC(=O)[C@@H]1CN(C(=O)c2ccccc2)C(=O)N1C(=O)OCc1ccccc1`, for which the EC50 was > 200 µM and the IC50 is > 200 µM.
`NC1=Nc2cc(Cl)ccc2Sc2nc3ccccc3n21`: the EC50 is > 200 µM and the IC50 came to 20.9 µM.
As to `Cc1cc(Cc2cc(C)c(O)c(C(=O)O)c2)cc(C(=O)O)c1O`, the EC50 was 380 µM and the IC50 turned out to be 417 µM.
Take `O=[N+]([O-])c1ccc(Cl)c(C2SCc3nc4ccccc4n32)c1` (centres undefined): the EC50 is > 39.8 µM and the IC50 came out at 33.1 µM.
The corresponding values for `O=C1[C@@H]2C(c3ccc(Cl)cc3Cl)=NO[C@@H]2C(=O)N1c1ccc(Cc2ccc(N3C(=O)[C@H]4C(c5ccc(Cl)cc5Cl)=NO[C@H]4C3=O)cc2)cc1` are > 7.08 µM and > 7.08 µM.
As to `O=C1C2(Cl)C3(Cl)C4(OCCO4)C4(Cl)C2(Cl)C2(Cl)C1(Cl)C3(Cl)C42Cl` (centres undefined), the EC50 was > 200 µM and the IC50 worked out at 28.8 µM.
Regarding `COc1ccc2c(c1)C1CCN(C)CC1OC2=O` (centres undefined), the result was inactive.
The same measure, in the same setting: the same measure for `O=S1(=O)CC(N2CCOCC2)C2=C(O1)c1sc(-c3ccccc3)nc1CC2` (centres undefined): “inactive”.
With `COc1cccc(OC)c1NC1=NCCO1`, the EC50 was > 200 µM and the IC50 is 120 µM.
For `CN(C)CCCNC(=O)c1c(O)c2ccccc2n(C)c1=O`, the EC50 was > 200 µM and the IC50 was determined as 79.4 µM.
Take `CC(=O)N1CC(O)(c2ccccc2)CSc2ccccc21` (centres undefined): the EC50 was > 107 µM and the IC50 is > 107 µM.
`O=C1CSC2=NC3=C(CSC/C3=C\c3ccc(Cl)cc3)C(c3ccc(Cl)cc3)N12` (centres undefined): the EC50 is > 200 µM and the IC50 stood at 9.77 µM.
The corresponding values for `CCCN1C(=O)c2cc(=O)[nH]c(O)c2C1C` (centres undefined) are > 117 µM and 81.3 µM.
With `Nc1ncc(C[P+](c2ccccc2)(c2ccccc2)c2ccccc2)c(N)n1`, the EC50 is > 200 µM and the IC50 is > 200 µM.
Turning to `COc1cc2cnc3c4ccccc4ccc3c2cc1OC`, the EC50 was > 64.6 µM and the IC50 was > 64.6 µM.
Turning to `CC(=O)c1c(-c2cccc3ccccc23)c(C#N)c(=S)n(C2OC(CO)C(O)C(O)C2O)c1-c1ccccc1` (centres undefined), the EC50 is > 200 µM; the IC50 was 24 µM and > 200 µM.
Consider `COC(=O)/C=C1\SC(OC)(N(C)c2ccccc2)N(C)C1=O` (centres undefined), for which the EC50 is > 155 µM and the IC50 turned out to be 145 µM.
Take `O=C(C[n+]1ccccc1)NNC(=O)/C(=C/c1ccc2c(c1)OCO2)NC(=O)c1ccccc1`: the EC50 is > 7.76 µM and the IC50 was > 7.76 µM.

These data come from PubChem BioAssay AID179 (DTP/NCI, 2004).
